Source: the supplement of paper PMC10307832

Experiments:
Assay in all cases: relative viability (nuclei count vs DMSO), 5 days (fraction); higher = more cells survive
[1] = compound: C1=CC=C2C(=C1)C=CC(=C2SSC3=C(C=CC4=CC=CC=C43)O)O [IPA-3]
Method in brief: (§1)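 For viability, nuclei in each treated well were divided by nuclei in vehicle wells and the median across plates was taken. Lung cancer cell lines in 1536-well plates were pinned with five library-drug doses (not always all listed) spaced by √10, cultured 5 days without medium change, and imaged at 4× after Hoechst staining, with plates passing only at control CV below 25% and at least one doubling.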

[2] = compound: Cc1ccc(-n2nc(C(C)(C)C)cc2NC(=O)Nc2ccc(OCCN3CCOCC3)c3ccccc23)cc1 [Doramapimod]
Method in brief: as §1

[3] = compound: Cn1c(Nc2ccc(C(F)(F)F)cc2)nc2cc(Oc3ccnc(-c4ncc(C(F)(F)F)[nH]4)c3)ccc21 [RAF265]
Method in brief: as §1

[4] = compound: Cc1ccc(-n2nc(C(C)(C)C)cc2NC(=O)Nc2ccc(OCCN3CCOCC3)c3ccccc23)cc1 [Doramapimod] + Cc1nc(Nc2ncc(C(=O)Nc3c(C)cccc3Cl)s2)cc(N2CCN(CCO)CC2)n1 [Dasatinib] (partner 0.075 µM)
Method in brief: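 For relative viability, nuclei counts in treated wells were divided by those in vehicle wells. Lung cancer cell lines had been pin-tool dosed in 1536-well plates the day after seeding and cultured for 5 days, then fixed and stained in one step (final 0.05% Triton X-100, 1% formaldehyde, 1 ug/ml Hoechst) and imaged at 4×. Doses were one drug alone or a fixed anchor-drug dose plus five library-drug doses (not always all listed) in √10 steps, and values are duplicate-plate medians.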

Row | Cell Line | relative viability ([1]; 0.2 µM) | relative viability ([1]; 0.6325 µM) | relative viability ([1]; 2 µM) | relative viability ([1]; 6.325 µM) | relative viability ([1]; 20 µM) | relative viability ([2]; 0.02 µM) | relative viability ([2]; 0.06325 µM) | relative viability ([2]; 0.2 µM) | relative viability ([2]; 0.6325 µM) | relative viability ([2]; 2 µM) | relative viability ([3]; 0.01 µM) | relative viability ([3]; 0.03162 µM) | relative viability ([3]; 0.1 µM) | relative viability ([3]; 0.3162 µM) | relative viability ([3]; 1 µM) | relative viability ([4]; first compound 0.02 µM) | relative viability ([4]; first compound 0.06325 µM) | relative viability ([4]; first compound 0.2 µM) | relative viability ([4]; first compound 0.6325 µM) | relative viability ([4]; first compound 2 µM)
1 | NCI-H322M | 1.01 | 0.902 | 1.02 | 1.03 | 1 | 1.05 | 0.993 | 0.998 | 1.3 | 0.937 | 1.04 | 1 | 0.597 | 0.38 | 0.282 | 0.276 | 0.28 | 0.259 | 0.262 | 0.24
2 | NCI-H358 | 1.06 | 0.892 | 0.917 | 0.965 | 0.949 | 0.873 | 0.881 | 0.973 | 0.923 | 0.88 | 1.03 | 0.903 | 0.686 | 0.382 | 0.262 | 0.164 | 0.156 | 0.162 | 0.204 | 0.171
3 | NCI-H441 | 1.37 | 0.951 | 0.896 | 1.04 | 0.915 | 0.999 | 0.845 | 1.08 | 1.06 | 0.859 | 1.01 | 0.928 | 1.08 | 0.78 | 0.753 | 0.413 | 0.506 | 0.544 |  | 0.425
4 | NCI-H460 | 1.2 | 0.967 | 0.921 | 0.945 | 0.993 | 0.994 | 0.999 | 1.04 | 1.05 | 0.972 | 1.02 | 0.968 | 1.09 | 0.971 | 0.965 | 0.445 | 0.499 | 0.488 | 0.535 | 0.437
5 | NCI-H520 | 1.07 | 0.888 | 0.916 | 1.03 | 0.929 | 0.943 | 0.933 | 0.941 | 0.88 | 0.868 | 1.11 | 0.869 | 1.03 | 1.02 | 0.614 | 0.183 | 0.166 | 0.148 | 0.213 | 0.182
6 | NCI-H522 | 1.05 | 0.889 | 0.978 | 1.07 | 1.08 | 0.946 | 0.978 | 0.79 | 0.925 | 0.86 | 1.15 | 1.1 | 0.941 | 0.812 | 0.961 | 0.715 | 0.851 | 0.863 | 0.785 | 0.812
7 | NCI-H596 | 0.934 | 0.989 | 0.977 | 1.13 | 1.2 | 1.02 | 1.12 | 0.957 | 0.92 | 0.984 | 1.28 | 0.987 | 1.07 | 1.03 | 0.829 | 0.524 | 0.643 | 0.538 | 0.738 | 0.52
8 | NCI-H647 | 1.27 | 0.906 | 0.88 | 0.758 | 0.568 | 1.05 | 1.03 | 1.07 | 0.995 | 0.913 | 0.931 | 0.974 | 0.886 | 0.645 | 0.505 | 0.179 | 0.19 | 0.157 | 0.21 | 0.147
9 | NCI-H650 | 1.2 | 0.977 | 0.861 | 1.03 | 1.12 | 0.965 | 1.02 | 1.11 | 0.901 | 0.913 | 1.07 | 0.845 | 0.969 | 0.615 | 0.51 | 0.517 | 0.535 | 0.571 | 0.586 | 0.431
10 | NCI-H661 | 1.09 | 0.951 | 0.984 | 1 | 1.01 | 0.978 | 1.02 | 0.995 | 1.06 | 0.915 | 1.01 | 0.962 | 0.774 | 0.643 | 0.57 | 0.703 | 0.855 | 1.04 | 1.19 | 0.909
11 | NCI-H727 | 0.929 | 0.938 | 0.816 | 0.901 | 0.899 | 0.971 | 0.972 | 1.05 | 0.885 | 0.787 | 0.932 | 0.908 | 0.834 | 0.7 | 0.62 | 0.352 | 0.341 | 0.283 | 0.353 | 0.388
12 | NCI-H838 | 1.08 | 0.942 | 0.972 | 0.969 | 1.1 | 0.993 | 1.02 | 1.06 | 1.05 | 0.949 | 0.981 | 1 | 0.973 | 0.93 | 0.773 | 0.279 | 0.327 | 0.315 | 0.326 | 0.298
13 | NCI-H1355 | 1.11 | 0.98 | 0.988 | 0.965 | 0.98 | 1.02 | 0.984 | 0.939 | 1.03 | 0.86 | 1 | 0.943 | 0.895 | 0.72 | 0.441 | 0.713 | 0.692 | 0.724 | 0.753 | 0.623
